Laboratory results reported in US20090123474A1, “COMBINATION OF ANGIOPOIETIN-2 ANTAGONIST AND OF VEGF-A, KDR AND/OR FLTL ANTAGONIST FOR TREATING CANCER” (ASTRAZENECA AB, priority 2005, published 2009).

Tests used:
Type in all cases: in vivo
[1] = tested on: A431 human tumour xenografts; assay: A431 xenograft efficacy study (Study A); details: 3.19.3 10 mg/kg 2×wk i.p., VTKI 3 mg/kg/day p.o.
Description: (§1) The anti-tumor activity of monoclonal antibody 3.19.3 in combination with the VTKI 4-(4-fluoro-2-methylindol-5-yloxy)-6-methoxy-7-(3-piperidinopropoxy)quinazoline was evaluated in a xenograft model of human skin epidermoid carcinoma (Study A) and in a model of colorectal cancer (Study B) by using the A431 and Colo205 cell lines respectively.
(§2) A431 and Colo205 cells were cultured in flasks as routine until the cells reached sub-confluence. Immunodeficient 6-8 week old female mice (Ncr/nu/nu) were used. The cells were harvested and suspended in Matrigel. A cell suspension containing 1 to 5×10^6 cells was injected subcutaneously into the flank of the mice. The mice were randomized into different groups, each containing 10-15 mice. When the tumour volume reached 200 mm^3, the mice were randomized in each groups and the treatments were initiated. mAb 3.19.3 10 mg/kg in saline was injected intraperitoneally, twice per week for 2 weeks. 4-(4-fluoro-2-methylindol-5-yloxy)-6-methoxy-7-(3-piperidinopropoxy)quinazoline was treated peroral daily at doses ranging from 1.5 to 6 mg/kg in water containing 1% Tween80. The dimensions of each tumor were measured twice per week. The volume of the tumor was calculated as: Volume=Length×(Width)^2×0.5 (cm^3).

[2] = tested on: human Colo205 colon tumour xenografts; assay: Colo205 xenograft efficacy study (Study B); details: 3.19.3 10 mg/kg 2×wk i.p., VTKI 6 mg/kg/day p.o.
Description: as §1, §2

[3] = tested on: human HT29 colon tumour xenografts; assay: HT29 xenograft efficacy study; details: AZD2171 1.5 mg/kg/day p.o. d 0-27, 3.19.3 10 mg/kg i.p. day 0, 3, 7, 10, 14, 17, 21 and 24
Description: The efficacy of mAb 3.19.3 in combination with AZD2171 was evaluated in human HT29 xenografts. Briefly, 5×10^6 HT29 tumour cells in 0.1 ml of serum free Roswell Park Memorial Institute (RPMI)-1640 medium were injected subcutaneously into the flanks of 60 athymic (nu/nu genotype) mice. When tumours reached a volume of 200 to 400 mm^3 (9-10 days), mice were randomized into groups (8 per group) and treatment started (day 0).
The control group (Group 1) received a daily oral (p.o.) administration of vehicle only for 28 consecutive days (day 0-27). Group 2 treatment consisted of a daily p.o. administration of AZD2171 alone at 1.5 mg/kg/administration for 28 consecutive days (day 0-27). AZD2171 was prepared as a suspension in 1% polysorbate 80 (i.e. a 1% (v/v) solution of polyoxyethylene (20) sorbitan mono-oleate in deionised water). […]
Tumour volumes (mm^3) were assessed at least twice weekly by bilateral Vernier caliper measurement and, taking length to be the longest diameter across the tumor and width the corresponding perpendicular, calculated using the formula (π/6)×(length×width)×√ (length×width). Growth inhibition from the start of treatment was assessed by comparison of the differences in tumor volume between control and treated groups. […] For all mice, the tumours were excised and weights recorded upon termination of the study.

[4] = tested on: human LoVo colon tumour xenografts; details: 3.19.3 10 mg/kg 2×wk i.p., Zactima 50 mg/kg/day p.o.
Description: The anti-tumor activity of monoclonal antibody 3.19.3 was evaluated in the LoVo xenograft model of colorectal cancer. Briefly, LoVo cells were cultured in flasks as routine until the cells reached sub-confluence. Immunodeficient 8 week old male NCr nude mice were used. Cell suspensions containing 3×10^6 cells were injected subcutaneously into the right flank of the mice, and after the tumour volume reached 200 mm^3, the mice were randomized in groups and the treatments were initiated. mAb 3.19.3 10 mg/kg in saline was injected intraperitoneally, twice per week for 2 weeks. Zactima™ was treated peroral daily at doses ranging from 25 to 50 mg/kg in water containing 1% Tween80. The dimensions of each tumor were measured twice per week. The volume of the tumor was calculated as: Volume=Length×(Width)^2×0.5 (cm^3).

SMILES: COc1cc2c(Oc3ccc4[nH]c(C)cc4c3F)ncnc2cc1OCCCN1CCCCC1 [4-(4-fluoro-2-methylindol-5-yloxy)-6-methoxy-7-(3-piperidinopropoxy)quinazoline, reference compound]
- % tumor growth inhibition [1]: 69%
- % inhibition [2]: 57%

SMILES: COc1cc2c(Oc3ccc4[nH]c(C)cc4c3F)ncnc2cc1OCCCN1CCCC1 [AZD2171, reference compound]
- Inhibition of Control Tumour Growth Day 28 [3]: 55%

SMILES: COc1cc2c(Nc3ccc(Br)cc3F)ncnc2cc1OCC1CCN(C)CC1 [Zactima™, reference compound]
- tumour inhibition [4]: 46%
